Data: article PMC7998731, “Pharmacokinetic Characterization of Supinoxin and Its Physiologically Based Pharmacokinetic Modeling in Rats” (Pharmaceutics, 2021)
Read-outs that look alike come from different tables or passages of the source.

Key:
[1] = cited from earlier work; for Plasma concentration, Mean: fasted male SD rats, intravenous 1 mg/kg, ref 15 (Table 1 footnote)
[2] = tested on: advanced triple-negative breast cancer; parameters: method as in doi:10.1200/JCO.2018.36.15_suppl.1097; settings: cited from earlier work
[3] = cited from earlier work; for Plasma concentration, Mean: fasted male SD rats, oral 1 mg/kg, ref 15 (Table 2 footnote)
[4] = In vivo pharmacokinetic study, oral administration to rats; settings: Sprague-Dawley, rat, plasma; for concentration at 0.25 h / concentration at 0.5 h / concentration at 1 h / concentration at 3 h / concentration at 7 h / concentration at 10 h / concentration at 24 h: fasted male SD rats; for concentration at 24 h: BQL treated as 0; for AUC(0-inf) / AUC(0-t) / Cmax / MRT / Tmax / half-life / bioavailability: male, rats, oral
Experimental: Male Sprague Dawley (SD) rats, 6–7 weeks old, were purchased from Orient Bio Inc. (Seongnam-si, Korea) and were used in all in vivo studies. The animals were maintained at a temperature of 20–26 °C with a 12 h light/dark cycle and a relative humidity of 40–60%. The experimental protocols involving the animals used in this study were reviewed by the Animal Care and Use Committee of Chungnam National University (CNU-00576, Daejeon, Korea; approval date: 13 March 2015).
Supinoxin was dissolved in a vehicle (10% DMSO, 10% Tween 80, 40% PEG 400, and 40% saline). In single doses, the administration routes involved an intravenous bolus via the tail vein (n = 4–5) and an oral gavage dose (n = 4–5). The dosing volume was 2 mL per kg body weight, and the dosing range was 0.5, 1, and 5 mg/kg. Blood samples (200 µL) were collected from the jugular vein at 0.083 (intravenous only), 0.25, 0.5, 1, 3, 7, 10, and 24 h after dosing, using a heparinized syringe to ensure anticoagulation. During blood sampling, rats were placed in a restrainer (Nagai-CFS-1S; NMS, Tokyo, Japan). For the separation of plasma fractions, all blood samples were centrifuged at 17,600× g for 5 min. The samples were stored at −20 °C until analysis. When obtaining tissue concentrations to calculate the tissue-to-plasma partition ratio was necessary, samples of nine tissues (i.e., adipose, heart, muscle, kidney, brain, liver, spleen, gut, and lung) were collected at 0.33, 1, 3, 7, and 24 h after 5 mg/kg intravenous administration of supinoxin (n = 3).
The peak concentration (Cmax) and the time to reach Cmax (Tmax) were obtained directly from individual plasma concentration–time profiles. Linear trapezoidal rule was used to calculate the areas under the plasma concentration–time curve (AUC) and the first moment curve (AUMC), while the terminal half-life (T1/2) was calculated using 0.693/λ, where λ represents the slope of the log-transformed concentration–time profiles of the terminal phase. The systemic clearance (CL), mean residence time (MRT), and the volume of the distribution at the steady state (Vss) were calculated as follows: dose/AUC, AUMC/AUC, and MRT·CL, respectively. To calculate the absolute oral bioavailability (F) we divided the AUC obtained following oral administration by that obtained following intravenous administration of the respective dose.
To determine supinoxin concentrations in plasma, feces, and urine, we used a previously reported LC–MS/MS assay using DGG-200064 as an internal standard (IS). Briefly, an aliquot (50 μL) of IS solution (concentration 100 ng/mL) was added to 50 μL of plasma, feces, or urine sample, following which 400 μL of acetonitrile containing 0.1% formic acid was added. After vigorous vortexing for 10 min, the extract was centrifuged at 17,600 rpm for 10 min at 4 °C, and the supernatant was placed in an autosampler vial. An aliquot of 5 µL was then injected into the analytical column for chromatographic separation; the analytical system consisted of a 1200 series HPLC system (Applied Biosystems, Foster City, CA, USA) equipped with a turbo-electrospray interface in positive ionization mode.

[5] = rats, intravenous, 1 mg/kg, Jeong, J.-W. et al., 2017
[6] = rats, oral, 1 mg/kg, Jeong, J.-W. et al., 2017

For COc1cc(OC)cc(N2CCN(C(=O)Nc3nc4cc(F)ccc4nc3OC)CC2)c1 [supinoxin, 1-(3,5-Dimethoxyphenyl)-4-[(6-Fluoro-2-Methoxyquinoxalin-3-yl) Aminocarbonyl] Piperazine], the “Plasma concentration, Mean” value ([1]; 0.083 h) is listed as 860.2 ng/mL, the “Plasma concentration, Mean” value ([1]; 0.25 h) is listed as 682.2 ng/mL and the “Plasma concentration, Mean” value ([1]; 0.5 h) is listed as 501.6 ng/mL. The “Plasma concentration, Mean” value ([1]; 1 h) was 292.4 ng/mL, the “Plasma concentration, Mean” value ([1]; 3 h) was 194.2 ng/mL and the “Plasma concentration, Mean” value ([1]; 7 h) was 52.3 ng/mL. For the same compound, the “Plasma concentration, Mean” value ([1]; 10 h) was 20.8 ng/mL, the “Plasma concentration, Mean” value ([1]; 24 h, BQL treated as 0) was 0.5 ng/mL and the AUCinf [1, 5] was 1780 ± 300 ng·h/mL. The AUClast [1, 5] was 1750 ± 320 ng·h/mL, the T1/2 [1, 5] was 2.64 ± 0.39 h and the Vss [1, 5] was 2.04 ± 0.316 L/kg. The “patients with stable disease” value ([2]; after two cycles of therapy) was “five of the 11 patients”, the “safety and tolerability of the suggested dose” value [2] was “safe and well tolerated” and the tumor reduction ([2]; one subject, after two cycles of therapy) was 18.2%. For the same compound, the “Plasma concentration, Mean” value ([3]; 0.25 h) was 211.9 ng/mL, the “Plasma concentration, Mean” value ([3]; 0.5 h) was 233.6 ng/mL and the “Plasma concentration, Mean” value ([3]; 1 h) was 231.2 ng/mL. For the same compound, the “Plasma concentration, Mean” value ([3]; 3 h) was 122.2 ng/mL, the “Plasma concentration, Mean” value ([3]; 7 h) was 34.9 ng/mL and the “Plasma concentration, Mean” value ([3]; 10 h) was 13.7 ng/mL. The “Plasma concentration, Mean” value ([3]; 24 h, BQL treated as 0) was 0.3 ng/mL, the AUCinf [3, 6] was 1010 ± 420 ng·h/mL and the AUClast [3, 6] was 984 ± 407 ng·h/mL. The Cmax [3, 6] was 250 ± 93 ng/mL, the “F (absolute oral bioavailability)” value [3, 6] was 56.9 ± 23.7% and the MRT [3, 6] was 3.15 ± 1.26 h. For the same compound, the T1/2 [3, 6] was 2.11 ± 0.91 h, the Tmax [3, 6] was 0.650 ± 0.337 h and the concentration at 0.25 h ([4]; oral 0.5 mg/kg) was 51 ng/mL. It also gave a concentration at 0.5 h ([4]; oral 0.5 mg/kg) of 99.6 ng/mL, a concentration at 1 h ([4]; oral 0.5 mg/kg) of 99.6 ng/mL and a concentration at 3 h ([4]; oral 0.5 mg/kg) of 58 ng/mL. The concentration at 7 h ([4]; oral 0.5 mg/kg) was 13.1 ng/mL, the concentration at 10 h ([4]; oral 0.5 mg/kg) was 5 ng/mL and the concentration at 24 h ([4]; oral 0.5 mg/kg) was 0 ng/mL. The concentration at 0.25 h ([4]; oral 5 mg/kg) was 474 ng/mL, the concentration at 0.5 h ([4]; oral 5 mg/kg) was 676 ng/mL and the concentration at 1 h ([4]; oral 5 mg/kg) was 800 ng/mL. For the same compound, the concentration at 3 h ([4]; oral 5 mg/kg) was 480 ng/mL, the concentration at 7 h ([4]; oral 5 mg/kg) was 113 ng/mL and the concentration at 10 h ([4]; oral 5 mg/kg) was 40.4 ng/mL. It also gave a concentration at 24 h ([4]; oral 5 mg/kg) of 0.5 ng/mL, an AUC(0-inf) ([4]; 0.5 mg/kg) of 418 ± 133 ng·h/mL and an AUC(0-t) ([4]; 0.5 mg/kg) of 402 ± 130 ng·h/mL. For the same compound, the Cmax ([4]; 0.5 mg/kg) was 108 ± 36 ng/mL, the MRT ([4]; 0.5 mg/kg) was 2.99 ± 0.71 h and the Tmax ([4]; 0.5 mg/kg) was 0.8 ± 0.274 h. The half-life ([4]; 0.5 mg/kg) was 2 ± 0.5 h, the bioavailability ([4]; 0.5 mg/kg, read-out: F (absolute oral bioavailability)) was 57.4 ± 18.3% and the AUC(0-inf) ([4]; 5 mg/kg) was 3510 ± 1420 ng·h/mL. For the same compound, the AUC(0-t) ([4]; 5 mg/kg) was 3480 ± 1450 ng·h/mL, the Cmax ([4]; 5 mg/kg) was 823 ± 340 ng/mL and the MRT ([4]; 5 mg/kg) was 3.17 ± 0.36 h. For the same compound, the Tmax ([4]; 5 mg/kg) was 0.75 ± 0.289 h, the half-life ([4]; 5 mg/kg) was 2.02 ± 0.33 h and the bioavailability ([4]; 5 mg/kg, read-out: F (absolute oral bioavailability)) was 57.2 ± 23.1%. For the same compound, the bioavailability ([4]; range over doses 0.5–5 mg/kg, read-out: absolute oral bioavailability) was 56.9 to 57.4%.
